Assay results reported in ChEMBL document CHEMBL3425423, “Hydroxy tricyclic 1,5-naphthyridinone oxabicyclooctane-linked novel bacterial topoisomerase inhibitors as broad-spectrum antibacterial agents-SAR of RHS moiety (Part-3)” (Bioorg Med Chem Lett, 2015).
≈ marks a conversion by molar mass, not a printed value.

Assays:
[1] = target: T1, Voltage-gated inwardly rectifying potassium channel KCNH2 (Homo sapiens, UniProt Q12809); experiment: Displacement of MK499 from human ERG
[2] = system: Enterococcus faecalis; experiment: Antibacterial activity against Enterococcus faecalis ATCC 29212; type: functional; details: Enterococcus faecalis, ATCC 29212; read-out: MIC
[3] = system: Staphylococcus aureus; experiment: Antibacterial activity against Staphylococcus aureus Smith; type: functional; details: Staphylococcus aureus, Smith; read-out: MIC
[4] = system: Mus musculus; experiment: Dose normalized AUC in C57BL/6 mouse at 1 mg/kg, iv and 2 mg/kg, po; type: ADME, organism-based; details: in vivo
[5] = Oral bioavailability in C57BL/6 mouse at 2 mg/kg; type: ADME, organism-based; details: in vivo
[6] = system: Staphylococcus aureus; experiment: Antibacterial activity against Staphylococcus aureus Smith infected in iv dosed CD1 mouse administered at 0.5 hrs post infection; type: functional
[7] = system: Streptococcus pneumoniae; experiment: Antibacterial activity against Streptococcus pneumoniae IID554; type: functional; details: Streptococcus pneumoniae, IID554; read-out: MIC
[8] = Plasma clearance in C57BL/6 mouse at 1 mg/kg, iv and 2 mg/kg, po; type: ADME, organism-based
[9] = target: T1, Voltage-gated inwardly rectifying potassium channel KCNH2; experiment: Inhibition of human ERG expressed in CHO cells measured over 5 mins by patch clamp assay
[10] = system: Escherichia coli; experiment: Antibacterial activity against Escherichia coli ATCC 25922; type: functional; details: Escherichia coli, ATCC 25922; read-out: MIC
[11] = system: Pseudomonas aeruginosa; experiment: Antibacterial activity against Pseudomonas aeruginosa PAO1; type: functional; details: Pseudomonas aeruginosa, PAO1; read-out: MIC
[12] = system: Staphylococcus aureus; experiment: Antibacterial activity against Staphylococcus aureus Smith infected in po dosed CD1 mouse administered at 0.5 hrs post infection; type: functional
[13] = system: Enterococcus faecium; experiment: Antibacterial activity against VanA-type vancomycin-resistant Enterococcus faecium A2373; type: functional; details: Enterococcus faecium, A2373; read-out: MIC
[14] = Volume of distribution at steady state in C57BL/6 mouse at 1 mg/kg, iv and 2 mg/kg, po; type: ADME, organism-based; details: in vivo, read-out: Vdss
[15] = system: Staphylococcus aureus; experiment: Ratio of MIC for quinolone-resistant Staphylococcus aureus MS5935 to MIC for quinolone-sensitive Staphylococcus aureus; type: functional
[16] = Half life in C57BL/6 mouse at 1 mg/kg, iv and 2 mg/kg, po; type: ADME, organism-based; details: in vivo
[17] = system: Acinetobacter baumannii; experiment: Antibacterial activity against Acinetobacter baumannii IID876; type: functional; details: Acinetobacter baumannii, IID876; read-out: MIC
[18] = system: Staphylococcus aureus; experiment: Antibacterial activity against Staphylococcus aureus Smith infected in po dosed ICR mouse assessed as survival rate administered at 1 hr post infection measured over 7 days; type: functional
[19] = system: Staphylococcus aureus; experiment: Antibacterial activity against Staphylococcus aureus Smith infected in iv dosed ICR mouse assessed as survival rate administered at 1 hr post infection measured over 7 days; type: functional
[20] = system: Streptococcus pneumoniae; experiment: Antibacterial activity against Streptococcus pneumoniae; type: functional
[21] = system: Staphylococcus aureus; experiment: Antibacterial activity against Staphylococcus aureus; type: functional
[22] = system: Staphylococcus aureus; experiment: Antibacterial activity against quinolone-resistant Staphylococcus aureus MS5935; type: functional
[23] = system: Staphylococcus aureus; experiment: Antibacterial activity against quinolone-sensitive Staphylococcus aureus MS5935

T1 sequence (Q12809 whole entry): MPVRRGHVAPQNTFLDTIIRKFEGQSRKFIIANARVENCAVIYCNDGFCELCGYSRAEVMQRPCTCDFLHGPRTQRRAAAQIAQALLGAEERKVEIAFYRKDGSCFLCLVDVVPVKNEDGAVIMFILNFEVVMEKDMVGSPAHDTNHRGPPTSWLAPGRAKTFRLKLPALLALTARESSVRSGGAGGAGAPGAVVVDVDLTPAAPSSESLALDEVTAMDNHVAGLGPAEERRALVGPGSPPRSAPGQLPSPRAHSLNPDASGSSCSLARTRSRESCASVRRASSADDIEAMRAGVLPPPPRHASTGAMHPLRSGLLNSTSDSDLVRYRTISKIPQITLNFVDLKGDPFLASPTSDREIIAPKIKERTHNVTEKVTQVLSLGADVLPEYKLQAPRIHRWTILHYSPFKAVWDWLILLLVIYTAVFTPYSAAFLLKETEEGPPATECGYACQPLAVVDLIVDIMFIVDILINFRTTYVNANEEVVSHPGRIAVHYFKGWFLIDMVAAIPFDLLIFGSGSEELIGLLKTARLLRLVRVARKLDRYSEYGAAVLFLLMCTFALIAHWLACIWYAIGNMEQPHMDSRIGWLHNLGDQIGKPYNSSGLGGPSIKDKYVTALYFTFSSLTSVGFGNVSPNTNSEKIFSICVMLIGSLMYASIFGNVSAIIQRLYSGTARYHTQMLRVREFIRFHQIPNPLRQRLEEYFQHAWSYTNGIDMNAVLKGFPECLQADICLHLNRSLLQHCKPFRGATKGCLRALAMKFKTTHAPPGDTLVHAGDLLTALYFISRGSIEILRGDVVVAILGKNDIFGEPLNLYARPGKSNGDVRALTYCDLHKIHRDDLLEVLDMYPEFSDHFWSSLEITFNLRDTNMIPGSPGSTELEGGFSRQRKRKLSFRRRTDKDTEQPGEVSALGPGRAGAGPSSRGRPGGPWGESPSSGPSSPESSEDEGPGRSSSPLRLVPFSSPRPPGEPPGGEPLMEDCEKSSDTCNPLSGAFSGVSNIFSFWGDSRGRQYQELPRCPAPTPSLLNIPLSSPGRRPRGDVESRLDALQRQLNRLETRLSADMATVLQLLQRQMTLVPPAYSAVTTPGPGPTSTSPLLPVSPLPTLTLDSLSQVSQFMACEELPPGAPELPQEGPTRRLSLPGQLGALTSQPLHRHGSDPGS

O=C1COc2cc(F)c(CNC34CCC(C[C@]5(O)Cn6c(=O)ccc7ncc(F)c5c76)(CC3)OC4)nc2N1 gave an IC50 [1] greater than 60 µM, an MIC [2] of 4 mg/L (≈ 7.61 µM) and an MIC [3] of 0.5 mg/L (≈ 0.951 µM). The AUC/dose [4] was 2.1 µM·h/mg/kg, the bioavailability [5] was 39% and the ED90 [6] was 12 mg/kg. It also gave an MIC [7] of 2 mg/L (≈ 3.81 µM), a clearance [8] of 0.9 L/h/kg and an IC50 [9] of 333 µM. The MIC [10] was 8 mg/L (≈ 15.2 µM), the MIC [11] was 16 mg/L (≈ 30.4 µM) and the ED90 [12] was 15 mg/kg. It also gave an MIC [13] of 16 mg/L (≈ 30.4 µM), a Vd [14] of 1.3 L/kg and a Ratio [15] of less than 4. The half-life [16] was 1.7 h and the MIC [17] was 8 mg/L (≈ 15.2 µM).
In the case of O=c1ccc2ncc(F)c3c2n1C[C@@]3(O)CC12CCC(NCc3cc4c(cn3)OCCO4)(CC1)CO2, the MIC [2] is reported as 8 mg/L (≈ 16.2 µM), the MIC [3] is reported as 0.5 mg/L (≈ 1.01 µM) and the AUC/dose [4] is reported as 0.5 µM·h/mg/kg. The bioavailability [5] was 60%, the ED90 [6] was 12 mg/kg and the MIC [7] was 2 mg/L (≈ 4.04 µM). The ED50 [18] was 5.1 mg/kg, the clearance [8] was 2.82 L/h/kg and the MIC [10] was 16 mg/L (≈ 32.4 µM). For the same compound, the ED50 [19] was 11 mg/kg, the MIC [11] was 16 mg/L (≈ 32.4 µM) and the MIC [13] was 16 mg/L (≈ 32.4 µM). It also gave a Vd [14] of 17 L/kg, a half-life [16] of 2 h and an MIC [17] of 8 mg/L (≈ 16.2 µM).
With O=c1ccc2ncc(=O)n3c2n1C[C@H]3CN1CCC(NCc2cc3c(cn2)OCCC3)CC1 [GEPOTIDACIN] the MIC90 [20] was 0.25 mg/L (≈ 0.557 µM) and the MIC90 [21] was 0.5 mg/L (≈ 1.11 µM).
C[C@H]1COc2c(N3CCN(C)CC3)c(F)cc3c(=O)c(C(=O)O)cn1c23.C[C@H]1COc2c(N3CCN(C)CC3)c(F)cc3c(=O)c(C(=O)O)cn1c23.O [LEVOFLOXACIN] showed an MIC [22] greater than 16 mg/L, an MIC [23] of 0.25 mg/L and a Ratio [15] greater than 64.
